Measured values as given in patent US9932637B2, “Genetic polymorphisms associated with cardiovascular disorders and drug response, methods of detection and uses thereof” (CELERA CORPORATION, priority 2003, dated 2018).

Test system: patients with prior myocardial infarction (CARE study)
Assay: CARE: association of SNPs with pravastatin treatment in cardiovascular events prevention (logistic regression, odds ratio pravastatin vs placebo by genotype; Table 8)
Type: in vivo, human
Settings: for Non-fatal MI (def & prob), n/total (%) / Fatal CHD/Definite Non-fatal MI, n/total (%) / Coronary Artery Bypass or Revascularization, n/total (%) / Hosp. for Unstable Angina, n/total (%) / Total Coronary Heart Disease Events, n/total (%) / Fatal/Non-fatal Atherosclerotic CV Disease, n/total (%) / Hosp. for Cardiovascular Disease, n/total (%) / Total Cardiovascular Disease Events, n/total (%) / Prava vs. Placebo Odds Ratio, 0 Rare Alleles / Prava vs. Placebo Odds Ratio, 1 Rare Alleles / Cardiovascular Mortality, n/total (%) / Fatal Atherosclerotic Cardiovascular Disease, n/total (%) / Fatal/Non-fatal MI (def & prob), n/total (%): All Patients; for Non-fatal MI (def & prob), n/total (%) / Fatal CHD/Definite Non-fatal MI, n/total (%) / Coronary Artery Bypass or Revascularization, n/total (%) / Hosp. for Unstable Angina, n/total (%) / Total Coronary Heart Disease Events, n/total (%) / Fatal/Non-fatal Atherosclerotic CV Disease, n/total (%) / Hosp. for Cardiovascular Disease, n/total (%) / Total Cardiovascular Disease Events, n/total (%) / Cardiovascular Mortality, n/total (%) / Fatal Atherosclerotic Cardiovascular Disease, n/total (%) / Fatal/Non-fatal MI (def & prob), n/total (%): Prava
From the text: In order to identify genetic markers associated with acute coronary events (e.g. MI, stroke, unstable angina, congestive heart failure, etc.) or response to statin treatment for the prevention of coronary events, samples from the Cholesterol and Recurrent Events (CARE) study (a randomized multicentral double-blinded trial on secondary prevention of acute coronary events with pravastatin) (Sacks et al., 1991, Am. J. Cardiol. 68: 1436-1446) were genotyped. A well-documented myocardial infarction (MI) was one of the enrollment criteria for entry into the CARE study. Patients were enrolled in the CARE trial from 80 participating study centers. […] Patients were randomized to receive either 40 mg of pravastatin once daily or a matching placebo. The primary endpoint of the trial was death from coronary heart disease and the median duration of follow-up was 5.0 years (range, 4.0 to 6.2 years). […] Secondary endpoints of other related cardiovascular or metabolic disease events, and changes in clinical variables were also recorded in pravastatin-treated and placebo groups. All individuals included in the study had signed a written informed consent form and the study protocol was approved by the respective Institutional Review Boards (IRBs).
For genotyping SNPs in CARE patient samples, DNA was extracted from blood samples using conventional DNA extraction methods such as the QIA-amp kit from Qiagen. Genotypes were obtained on an ABI PRISM® 7900HT Sequence Detection PCR system (Applied Biosystems, Foster City, Calif.) by kinetic allele-specific PCR, similar to the method described by Germer et al. (Germer S., Holland M. J., Higuchi R. 2000, Genome Res. 10: 258-266).
Statistical analysis for association of SNPs with pravastatin treatment in cardiovascular events prevention (Table 8) was carried out using an overall logistic regression model that included an intercept, a parameter for the effect of a genotype containing two rare alleles versus a genotype containing no rare alleles, a parameter for the effect of a genotype containing one rare allele versus a genotype containing no rare alleles, a parameter for the effect of use of pravastatin versus the use of placebo, and parameters for the interaction effects between SNP genotypes and pravastatin use. The test of the overall model is a chi-square test with two degrees of freedom for analyses containing all three genotypes, and one degree of freedom for analyses containing two genotypes.
Effect sizes were estimated through odds ratios (pravastatin group versus placebo) for carriers of each genotype (groups of 0, 1, and 2 minor allele carriers). The effect was considered to be significant if p-value for testing whether any of the interactions between SNP genotypes and pravastatin use were <0.05. […] Odds ratios less than one indicate that the specific SNP allele has a protective effect and odds ratios greater than one indicate that the specific SNP allele has an adverse effect.

[1] = CR1 hCV25598594, 2 Rare Alleles, n/total 0/0
[2] = CR1 hCV25598594, Coronary Artery Bypass or Revascularization
[3] = CR1 hCV25598594, Fatal CHD/Definite Non-fatal MI
[4] = CR1 hCV25598594, Fatal/Non-fatal Atherosclerotic CV Disease
[5] = CR1 hCV25598594, Hosp. for Cardiovascular Disease
[6] = CR1 hCV25598594, Hosp. for Unstable Angina
[7] = CR1 hCV25598594, Non-fatal MI (def & prob)
[8] = CR1 hCV25598594, Total Cardiovascular Disease Events
[9] = CR1 hCV25598594, Total Coronary Heart Disease Events
[10] = CXCL16 hCV8718197, 0 Rare Alleles, n/total 12/468

## CC[C@H](C)C(=O)O[C@H]1C[C@H](O)C=C2C=C[C@H](C)[C@H](CC[C@@H](O)C[C@@H](O)CC(=O)O)[C@H]21 [pravastatin]
COL11A1 hCV8400671, All Patients, 2 Rare Alleles, Prava arm
  Nonfatal MI (def & prob), n/total (%): (4.1%)
CR1 hCV25598594, 0 Rare Alleles, n/total 132/1445
  Non-fatal MI (def & prob), n/total (%): (9.1%)
CR1 hCV25598594, 0 Rare Alleles, n/total 139/1445
  Fatal CHD/Definite Non-fatal MI, n/total (%): (9.6%)
CR1 hCV25598594, 0 Rare Alleles, n/total 212/1445
  Coronary Artery Bypass or Revascularization, n/total (%): (14.7%)
CR1 hCV25598594, 0 Rare Alleles, n/total 223/1445
  Hosp. for Unstable Angina, n/total (%): (15.4%)
CR1 hCV25598594, 0 Rare Alleles, n/total 431/1445
  Total Coronary Heart Disease Events, n/total (%): (29.8%)
CR1 hCV25598594, 0 Rare Alleles, n/total 491/1445
  Fatal/Non-fatal Atherosclerotic CV Disease, n/total (%): (34.0%)
CR1 hCV25598594, 0 Rare Alleles, n/total 586/1445
  Hosp. for Cardiovascular Disease, n/total (%): (40.6%)
CR1 hCV25598594, 0 Rare Alleles, n/total 603/1445
  Total Cardiovascular Disease Events, n/total (%): (41.7%)
CR1 hCV25598594, 1 Rare Allele, n/total 1/72
  Fatal CHD/Definite Non-fatal MI, n/total (%): (1.4%)
CR1 hCV25598594, 1 Rare Allele, n/total 2/72
  Non-fatal MI (def & prob), n/total (%): (2.8%)
CR1 hCV25598594, 1 Rare Allele, n/total 7/72
  Coronary Artery Bypass or Revascularization, n/total (%): (9.7%)
CR1 hCV25598594, 1 Rare Allele, n/total 8/72
  Hosp. for Unstable Angina, n/total (%): (11.1%)
CR1 hCV25598594, 1 Rare Allele, n/total 11/72
  Total Coronary Heart Disease Events, n/total (%): (15.3%)
CR1 hCV25598594, 1 Rare Allele, n/total 15/72
  Fatal/Non-fatal Atherosclerotic CV Disease, n/total (%): (20.8%)
CR1 hCV25598594, 1 Rare Allele, n/total 23/72
  Hosp. for Cardiovascular Disease, n/total (%): (31.9%)
CR1 hCV25598594, 1 Rare Allele, n/total 24/72
  Total Cardiovascular Disease Events, n/total (%): (33.3%)
[1]
  Coronary Artery Bypass or Revascularization, n/total (%): (0.0%)
  Fatal CHD/Definite Non-fatal MI, n/total (%): (0.0%)
  Fatal/Non-fatal Atherosclerotic CV Disease, n/total (%): (0.0%)
  Hosp. for Cardiovascular Disease, n/total (%): (0.0%)
  Hosp. for Unstable Angina, n/total (%): (0.0%)
  Non-fatal MI (def & prob), n/total (%): (0.0%)
  Total Cardiovascular Disease Events, n/total (%): (0.0%)
  Total Coronary Heart Disease Events, n/total (%): (0.0%)
[2]
  Prava vs. Placebo Odds Ratio, 0 Rare Alleles: 0.74
  Prava vs. Placebo Odds Ratio, 1 Rare Alleles: 0.23
[3]
  Prava vs. Placebo Odds Ratio, 0 Rare Alleles: 0.76
  Prava vs. Placebo Odds Ratio, 1 Rare Alleles: 0.06
[4]
  Prava vs. Placebo Odds Ratio, 0 Rare Alleles: 0.81
  Prava vs. Placebo Odds Ratio, 1 Rare Alleles: 0.25
[5]
  Prava vs. Placebo Odds Ratio, 0 Rare Alleles: 0.79
  Prava vs. Placebo Odds Ratio, 1 Rare Alleles: 0.33
[6]
  Prava vs. Placebo Odds Ratio, 0 Rare Alleles: 0.87
  Prava vs. Placebo Odds Ratio, 1 Rare Alleles: 0.31
[7]
  Prava vs. Placebo Odds Ratio, 0 Rare Alleles: 0.74
  Prava vs. Placebo Odds Ratio, 1 Rare Alleles: 0.12
[8]
  Prava vs. Placebo Odds Ratio, 0 Rare Alleles: 0.78
  Prava vs. Placebo Odds Ratio, 1 Rare Alleles: 0.33
[9]
  Prava vs. Placebo Odds Ratio, 0 Rare Alleles: 0.81
  Prava vs. Placebo Odds Ratio, 1 Rare Alleles: 0.22
[10]
  Cardiovascular Mortality, n/total (%): (2.6%)
  Fatal Atherosclerotic Cardiovascular Disease, n/total (%): (2.6%)
CXCL16 hCV8718197, 0 Rare Alleles, n/total 33/468
  Fatal/Non-fatal MI (def & prob), n/total (%): (7.1%)
CXCL16 hCV8718197, 0 Rare Alleles, n/total 36/468
  Fatal CHD/Definite Non-fatal MI, n/total (%): (7.7%)
CXCL16 hCV8718197, 0 Rare Alleles, n/total 56/468
  Coronary Artery Bypass or Revascularization, n/total (%): (12.0%)
CXCL16 hCV8718197, 0 Rare Alleles, n/total 125/468
  Total Coronary Heart Disease Events, n/total (%): (26.7%)
CXCL16 hCV8718197, 0 Rare Alleles, n/total 177/468
  Hosp. for Cardiovascular Disease, n/total (%): (37.8%)
CXCL16 hCV8718197, 0 Rare Alleles, n/total 180/468
  Total Cardiovascular Disease Events, n/total (%): (38.5%)
CXCL16 hCV8718197, 1 Rare Allele, n/total 23/742
  Fatal Atherosclerotic Cardiovascular Disease, n/total (%): (3.1%)
CXCL16 hCV8718197, 1 Rare Allele, n/total 24/742
  Cardiovascular Mortality, n/total (%): (3.2%)
CXCL16 hCV8718197, 1 Rare Allele, n/total 68/742
  Fatal CHD/Definite Non-fatal MI, n/total (%): (9.2%)
CXCL16 hCV8718197, 1 Rare Allele, n/total 75/742
  Fatal/Non-fatal MI (def & prob), n/total (%): (10.1%)
CXCL16 hCV8718197, 1 Rare Allele, n/total 119/742
  Coronary Artery Bypass or Revascularization, n/total (%): (16.0%)
CXCL16 hCV8718197, 1 Rare Allele, n/total 220/742
  Total Coronary Heart Disease Events, n/total (%): (29.6%)
CXCL16 hCV8718197, 1 Rare Allele, n/total 305/742
  Hosp. for Cardiovascular Disease, n/total (%): (41.1%)
CXCL16 hCV8718197, 1 Rare Allele, n/total 314/742
  Total Cardiovascular Disease Events, n/total (%): (42.3%)
CXCL16 hCV8718197, 2 Rare Alleles, n/total 19/292
  Cardiovascular Mortality, n/total (%): (6.5%)
